PMC3927474, “Whole body synthesis rates of DHA from α-linolenic acid are greater than brain DHA accretion and uptake rates in adult rats” (Journal of Lipid Research, 2014)

Tests used:
Assay type in all cases: in vivo, rat
[1] = Body weight and food intake, balance study; details: 15 wk diet
Procedure: The remaining pups were weaned, singly housed, continued on the diet of their respective dam for 15 weeks, and were allocated to either the balance study (n = 11), the steady-state infusion study (n = 4), or the brain DHA uptake study (n = 3). For the balance study, the rats were weighed, food intake was determined, and uneaten food was replaced with fresh food on a weekly basis. Rats were euthanized by CO2 asphyxiation. Brains were removed and dissected sagittally. Carcasses and one half brain per rat were stored immediately at −80°C (to be later analyzed for lipid content). The other half brain was flash-frozen with 2-methylbutane on dry ice, and then stored at −80°C until analyzed for mRNA expression. The PUFA content in the brains and bodies of these rats after the 15 week feeding period was compared with the baseline PUFA content (described above) to determine PUFA accretion (equation 1, described below). For the steady-state infusion study and the brain DHA uptake study, a jugular vein catheter was surgically implanted into the rats. After allowing a 24 h recovery, rats were infused with ^2H14-ALA or ^14C-DHA, respectively (described below). The ^2H14-ALA infusion was used to determine DHA synthesis rates following a previously published method ([24]) and the ^14C-DHA infusion was utilized to measure the brain DHA uptake rate by following previously published methods ([26]).

COX-2 = assay: Brain gene expression (TLDA qPCR); details: 15 wk diet; control diet = 1
Procedure: (§1) RNA was extracted from the flash-frozen half brains of the 15 week postweaning rats. The brain was briefly thawed and dissected to isolate the brainstem, cerebellum, cortex, hippocampus, striatum, and the rest of the brain. RNA was extracted from the brain regions using Trizol reagent (Ambion; Life Technologies, Burlington, ON, Canada) according to the manufacturer's protocol. […] Chloroform was added to the Trizol reagent at a ratio of 1:5 (chloroform:Trizol reagent) and the solution was mixed and incubated at room temperature. The solution was then centrifuged at 12,000 g for 15 min at 4°C. […] The samples were then centrifuged at 12,000 g for 10 min at 4°C to precipitate the RNA pellet. […] The pellet was allowed to air dry, and was then dissolved in RNase-free water. A Nanodrop 1000 (NanoDrop Technologies Inc., Wilmington, DE) was used to determine the concentration and purity of each sample by measuring absorbance at 260 and 280 nm. Each sample was aliquoted to make 1 μg of RNA per 10 μl of sample and stored at -80°C. A high-capacity cDNA reverse transcription kit (Applied Biosystems, Burlington, ON, Canada) was used to reverse transcribe 1 μg of RNA according to the manufacturer's instructions. Newly synthesized cDNA was stored at -20°C until the following day when it was loaded onto TaqMan low density array (TLDA) plates. Quantitative real-time PCR was performed using TLDA (Applied Biosystems) on the 7900HT real-time PCR system (Applied Biosystems). cDNA (50 ng) was diluted with water to make a volume of 50 μl and mixed with 50 μl of TaqMan Universal PCR Master Mix (Applied Biosystems). The mixture was then loaded onto a customized preconfigured 384-well TLDA plate according to the manufacturer's protocol. TaqMan gene expression assays were used to assess 21 genes that were previously reported to be differentially expressed with n-3 deprivation. […] All genes were normalized to phosphoglycerate kinase 1. Similar results were found when normalizing to β-actin or 18S rRNA.

α-synuclein = assay: Brain gene expression (TLDA qPCR); details: 15 wk diet; control diet = 1
Procedure: as §1

retinoic acid receptor α = assay: Brain gene expression (TLDA qPCR); details: 15 wk diet; control diet = 1
Procedure: as §1

uncoupling protein 2 = assay: Brain gene expression (TLDA qPCR); details: 15 wk diet; control diet = 1
Procedure: as §1

SMILES | Mean body weight at 15 weeks [1] [g] | Brainstem gene expression: COX 2 (COX-2) [RQ] | Cerebellum gene expression: COX 2 (COX-2) [RQ] | Cortex gene expression: COX 2 (COX-2) [RQ] | Hippocampus gene expression: COX 2 (COX-2) [RQ] | Rest of brain gene expression: COX 2 (COX-2) [RQ] | Striatum gene expression: COX 2 (COX-2) [RQ] | Brainstem gene expression: SNCa (α-synuclein) [RQ] | Cerebellum gene expression: SNCa (α-synuclein) [RQ] | Cortex gene expression: SNCa (α-synuclein) [RQ] | Hippocampus gene expression: SNCa (α-synuclein) [RQ] | Rest of brain gene expression: SNCa (α-synuclein) [RQ] | Striatum gene expression: SNCa (α-synuclein) [RQ] | Brainstem gene expression: RARa (retinoic acid receptor α) [RQ] | Cerebellum gene expression: RARa (retinoic acid receptor α) [RQ] | Cortex gene expression: RAR a (retinoic acid receptor α) [RQ] | Hippocampus gene expression: RAR a (retinoic acid receptor α) [RQ] | Rest of brain gene expression: RAR a (retinoic acid receptor α) [RQ] | Striatum gene expression: RARa (retinoic acid receptor α) [RQ] | Brainstem gene expression: UCP2 (uncoupling protein 2) [RQ] | further results
CC/C=C\C/C=C\C/C=C\CCCCCCCC(=O)O [ALA, α-linolenic acid] | 673 ± 25 | 0.87 | 1.46 | 1.17 | 1.15 | 0.92 | 1.04 | 0.95 | 0.96 | 1.08 | 1.10 | 0.97 | 1.05 | 1.00 | 1.07 | 1.03 | 0.96 | 0.91 | 0.93 | 1.05 | Cerebellum gene expression: UCP2 (uncoupling protein 2): 1.17 RQ; Cortex gene expression: UCP2 (uncoupling protein 2): 1.04 RQ; Hippocampus gene expression: UCP2 (uncoupling protein 2): 1.26 RQ; Rest of brain gene expression: UCP2 (uncoupling protein 2): 0.97 RQ; Striatum gene expression: UCP2 (uncoupling protein 2): 1.09 RQ
CC/C=C\C/C=C\C/C=C\C/C=C\C/C=C\C/C=C\CCC(=O)O [DHA, Docosahexaenoic acid] | 724 ± 18 | 3.34 | 1.41 | 1.29 | 1.12 | 1.21 | 0.75 | 2.25 | 0.84 | 1.15 | 1.19 | 1.09 | 0.97 | 1.52 | 1.08 | 1.20 | 0.97 | 1.09 | 0.93 | 1.08 | Cerebellum gene expression: UCP2 (uncoupling protein 2): 0.87 RQ; Cortex gene expression: UCP2 (uncoupling protein 2): 1.02 RQ; Hippocampus gene expression: UCP2 (uncoupling protein 2): 1.07 RQ; Rest of brain gene expression: UCP2 (uncoupling protein 2): 1.20 RQ; Striatum gene expression: UCP2 (uncoupling protein 2): 1.00 RQ
